Results reported in US11787766B2, “Compound having PD-L1 inhibitory activity, preparation method therefor and use thereof” (SHANGHAI ENNOVABIO PHARMACEUTICALS CO., LTD., priority 2017, dated 2023).

These compounds were tested against PD-L1 (Homo sapiens (Human), UniProt Q9NZQ7) (assay: PD-1/PD-L1 homogeneous time-resolved fluorescence (HTRF) binding assay). Settings: Cisbio PD1/PD-L1 binding assay kit.
Excerpt: PD-1/PD-L1 homogeneous time-resolved fluorescence (HTRF) detection technology was used to detect the binding ability of the compound to PD-L1.
PD1/PD-L1 binding assay kit (Cisbio, Cat #63ADK000CPDEC) was used, which includes two proteins, Tag 1-PD-L1 and Tag 2-PD-1, and two antibodies, Anti-Tag1-Eu^3+ and Anti-Tag2-XL 665. Assay principle: Anti-tag1-Eu^3+ is the HTRF donor, and Anti-Tag2-XL 665 is the HTRF acceptor. When Tag 1-PD-L1 and Tag 2-PD-1 interact, the added HTRF donor and the acceptor are close to each other. After the donor receives the excitation energy, it transfers part of the energy to the acceptor, thus producing 665 nm emission signal. When the compound is added to block the PD1/PD-L1 interaction, only 620 nm emission light was detected. The inhibitory effect of the compound was determined by analyzing the ratio of 665 nm/620 nm. Tag 1-PD-L1 was diluted with Diluent buffer (cat #62DLBDDF) to a working concentration of 10 nM, Tag 2-PD-1 was diluted with Diluent buffer to a working concentration of 500 nM, and Anti-Tag1-Eu^3+ was diluted with detection buffer (cat #62DB1FDG) by 1:100, Anti-Tag2-XL 665 was diluted with detection buffer by 1:20, and the test compound was diluted with Diluent buffer to a final concentration of 2×. In a 384-well plate, 2 μL of compound was added to each well, and then 4 μL of Tag 1-PD-L1, 4 μL of Tag 2-PD-1 were added and incubated at room temperature for 15 minutes. 5 μL Anti-Tag1-Eu^3+ and 5 μL Anti-Tag2-XL 665 were added and incubated overnight at room temperature, and detected with BioTek Synergy™ Neo2 Multifunctional Microplate Reader to obtain the ratio of 665 nm/620 nm. The IC50 curve was fitted by GraphPad Prism 5.02.

Chain of PD-L1 (Q9NZQ7 19-238): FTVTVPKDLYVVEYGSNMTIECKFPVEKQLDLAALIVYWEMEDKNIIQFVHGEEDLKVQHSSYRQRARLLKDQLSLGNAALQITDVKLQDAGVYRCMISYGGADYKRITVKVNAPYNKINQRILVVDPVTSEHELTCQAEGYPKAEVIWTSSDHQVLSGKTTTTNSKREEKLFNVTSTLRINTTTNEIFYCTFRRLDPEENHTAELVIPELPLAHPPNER

IC50	Compound
> 1000 nM	COc1nc(OCc2cccc(-c3cccc(CO)c3C)c2C)ccc1CNC(=O)C(F)(F)F [Compound 1, 2,2,2-trifluoro-N-((6-((3′-(hydroxymethyl)-2,2′-dimethyl-[1,1′-biphenyl]-3-yl)methoxy)-2-methoxypyridin-3-yl)methyl)acetamide]
10 to 100 nM	COc1nc(OCc2cccc(-c3cccc(COc4ccc(CN)c(OC)n4)c3C)c2C)ccc1CN [Compound 6, ((((2,2′-dimethyl-[1,1′-biphenyl)-3,3′-diyl)bis (methylene))bis (oxo))bis (2-methoxypyridine-6,3-diyl)) dimethylamine]
> 1000 nM	Cc1c(CO)cccc1-c1cccc(COc2cccc(CN)n2)c1C [Compound 7, (3′-(((6-(aminomethyl)pyridin-2-yl)oxo)methyl)-2,2′-dimethyl-[1,1′-biphenyl]-3-yl)methanol]
> 1000 nM	COc1nc(OCc2cccc(-c3cccc(CO)c3C)c2C)ccc1N [Compound 8]
> 1000 nM	COc1cc(OCc2cccc(-c3cccc(CO)c3C)c2C)cc(OC)c1CNCCNC(C)=O [Compound 10, N-(2-((4-((3′-(hydroxymethyl)-2,2′-dimethyl-[1,1′-biphenyl]-3-yl)methoxy)-2,6-dimethoxybenzyl)amino)ethyl) acetamide]
> 1000 nM	COc1cc(N)cc(OCc2cccc(-c3cccc(CO)c3C)c2C)n1 [Compound 12, (3′-(((4-amino-6-methoxypyridin-2-yl)oxo)methyl)-2,2′-dimethyl-[1,1′-biphenyl]-3-yl)methanol]
> 1000 nM	Cc1c(CO)cccc1-c1cccc(COc2cccc(N)n2)c1C [Compound 13, (3′(((6-aminopyridin-2-yl)oxo)methyl)-2,2′-dimethyl-[1,1′-biphenyl]-3-yl) methanol]
100 to 1000 nM	COc1nc(OCc2cccc(-c3cccc(CO)c3C)c2C)ccc1CCN [Compound 15, (3′-(((5-(2-aminoethyl)-6-methoxypyridin-2-yl)oxo)methyl)-2,2′-dimethyl-[1,1′-biphenyl]-3-yl) methanol]
> 1000 nM	COc1nc(OCc2cccc(COc3ccc(CNCCNC(C)=O)c(OC)n3)n2)ccc1CNCCNC(C)=O [Compound 18, N,N-((((((pyridine-2,6-diyl-bis (methylene))bis (oxo))bis (2-methoxypyridine-6,3-diyl))bis (methylene))bis (azetanediyl))bis (ethane-2,1-diyl)) diacetamide]
100 to 1000 nM	COc1nc(OCc2cccc(COc3ccc(CNCCNC(C)=O)c(OC)n3)c2C)ccc1CNCCNC(C)=O [Compound 19]
10 to 100 nM	COc1nc(OCc2cccc(-c3cccc(COc4ccc(CNCC(C)(C)O)c(OC)n4)c3C)c2C)ccc1CNCC(C)(C)O [Compound 20]
10 to 100 nM	COc1nc(OCc2cccc(-c3cccc(COc4ccc(CNCCC(N)=O)c(OC)n4)c3C)c2C)ccc1CNCCC(N)=O [Compound 22]
100 to 1000 nM	COc1nc(OCc2cccc(-c3ccccc3)c2C)ccc1CN [Compound 23]
10 to 100 nM	COc1nc(OCc2cccc(-c3cccc(COc4ccc(CNC5CCCCC5O)c(OC)n4)c3C)c2C)ccc1CNC1CCCCC1O (stereo not drawn) [Compound 24]
> 1000 nM	CC(=O)NCCNCC(=O)Nc1cnn(Cc2cccc(-c3cccc(Cn4cc(NC(=O)CNCCNC(C)=O)cn4)c3C)c2C)c1 [Compound 25]
< 10 nM	COc1nc(OCc2cccc(-c3cccc(COc4ccc(CN5CCCC[C@H]5C(=O)O)c(OC)n4)c3C)c2C)ccc1CN1CCCC[C@H]1C(=O)O [Compound 26]
< 10 nM	COc1nc(OCc2cccc(-c3cccc(COc4ccc(CN5CCCC[C@@H]5C(=O)O)c(OC)n4)c3C)c2C)ccc1CN1CCCC[C@@H]1C(=O)O [Compound 27]
10 to 100 nM	COc1nc(OCc2cccc(-c3cccc(COc4ccc(CNCCNC(C)=O)c(OC)n4)c3C)c2)ccc1CNCCNC(C)=O [Compound 28]
> 1000 nM	COc1nc(OCc2cccc(-n3nc(C)c(COc4ccc(CNCCNC(C)=O)c(OC)n4)c3C)c2C)ccc1CNCCNC(C)=O [Compound 29]
> 1000 nM	COc1nc(OCc2cccc(-n3nnc(COc4ccc(CNCCNC(C)=O)c(OC)n4)c3C)c2C)ccc1CNCCNC(C)=O [Compound 31]

IC50	Compound
> 1000 nM	Cc1c(COc2ccc3[nH]c(CO)cc3n2)cccc1-c1cccc(COc2ccc3[nH]c(CO)cc3n2)c1C [Compound 32]
10 to 100 nM	COc1nc(OCc2cccc(-c3cccc(COc4ccc(CNCC(C)C(=O)O)c(OC)n4)c3C)c2C)ccc1CNCC(C)C(=O)O (stereo not drawn) [Compound 33]
10 to 100 nM	CC(=O)NCCNCc1cc2nc(OCc3cccc(-c4cccc(COc5ccc6[nH]c(CNCCNC(C)=O)cc6n5)c4C)c3C)ccc2[nH]1 [Compound 34]
< 10 nM	COc1nc(OCc2cccc(-c3cccc(COc4ccc(CN5CCC5C(=O)O)c(OC)n4)c3C)c2C)ccc1CN1CCC1C(=O)O (stereo not drawn) [Compound 35]
< 10 nM	COc1nc(OCc2cccc(-c3csc(COc4ccc(CNCCNC(C)=O)c(OC)n4)c3C)c2C)ccc1CNCCNC(C)=O [Compound 36]
< 10 nM	COc1nc(OCc2cccc(-c3cccc(COc4ccc(CNC5(C(=O)O)CC5)c(OC)n4)c3C)c2C)ccc1CNC1(C(=O)O)CC1 [Compound 37]
> 1000 nM	COc1nc(OCc2cccc(-n3cnc(COc4ccc(CNCCNC(C)=O)c(OC)n4)c3C)c2C)ccc1CNCCNC(C)=O [Compound 38]
10 to 100 nM	COc1nc(OCc2cccc(-c3cccc(COc4ccc(CN5CCCC5CC(=O)O)c(OC)n4)c3C)c2C)ccc1CN1CCCC1CC(=O)O (stereo not drawn) [Compound 39]
> 1000 nM	COc1nc(OCc2sc(C)c(COc3ccc(CNCCNC(C)=O)c(OC)n3)c2C)ccc1CNCCNC(C)=O [Compound 40]
10 to 100 nM	COC(=O)[C@@H]1C[C@H](O)CN1Cc1ccc(OCc2cccc(-c3cccc(COc4ccc(CN5C[C@@H](O)C[C@H]5C(=O)OC)c(OC)n4)c3C)c2C)nc1OC [Compound 41]
< 10 nM	COc1nc(OCc2cccc(-c3cccc(COc4ccc(CN5CC(O)(C(=O)O)C5)c(OC)n4)c3C)c2C)ccc1CN1CC(O)(C(=O)O)C1 [Compound 42]
< 10 nM	COc1nc(OCc2cccc(-c3cccc(COc4ccc(CNCCNC(C)=O)c(OC)n4)c3Cl)c2Cl)ccc1CNCCNC(C)=O [Compound 43]
> 1000 nM	COc1nc(OCc2cccc(-n3c(C)nc(COc4ccc(CNCCNC(C)=O)c(OC)n4)c3C)c2C)ccc1CNCCNC(C)=O [Compound 44]
< 10 nM	CC(=O)NCCNCc1cc(Cl)c2nc(-c3cccc(-c4cccc(-c5nc6c(Cl)cc(CNCCNC(C)=O)cn6n5)c4C)c3C)nn2c1 [Compound 45]
< 10 nM	COc1nc(OCc2cccc(-c3cccc(COc4ccc(CN5C[C@@H](O)C[C@H]5C(=O)O)c(OC)n4)c3Cl)c2Cl)ccc1CN1C[C@@H](O)C[C@H]1C(=O)O [Compound 46]
< 10 nM	COc1nc(OCc2cccc(-c3cccc(COc4ccc(CN5C[C@@H](O)C[C@H]5C(=O)O)c(OC)n4)c3C)c2C)ccc1CN1CC[C@H](O)C1 [Compound 47]
100 to 1000 nM	COC(=O)[C@@H]1C[C@H](O)CN1Cc1ccc(OCc2cccc(-c3cccc(COc4ccc(CN5C[C@@H](O)C[C@H]5C(=O)OC)c(OC)n4)c3Cl)c2Cl)nc1OC [Compound 48]
< 10 nM	COc1nc(OCc2cccc(-c3cccc(COc4ccc(CN[C@@H](CC(N)=O)C(=O)O)c(OC)n4)c3C)c2C)ccc1CN[C@@H](CC(N)=O)C(=O)O [Compound 49]
< 10 nM	COc1nc(OCc2cccc(-c3cccc(COc4ccc(CNC(C)(CO)CO)c(OC)n4)c3C)c2C)ccc1CNC(C)(CO)CO [Compound 50]
